Test: xn = mol fraction of the nth substance listed
Conditions: 101 kPa

CCCCCCCCOS(=O)(=O)[O-].CC[n+]1ccn(C)c1 + O
Conditions	electrical conductivity [S/m]	viscosity [mPa·s]
268.15 K, x2 = 0.7822	0.277	–
268.15 K, x2 = 0.8104	0.331	–
268.15 K, x2 = 0.8384	0.406	–
273.15 K, x2 = 0.7822	0.355	–
273.15 K, x2 = 0.8104	0.417	–
273.15 K, x2 = 0.8384	0.529	–
278.15 K, x2 = 0.7822	0.447	–
278.15 K, x2 = 0.8104	0.522	–
278.15 K, x2 = 0.8384	0.653	–
283.15 K, x2 = 0.7822	0.552	–
283.15 K, x2 = 0.8104	0.642	–
283.15 K, x2 = 0.8237	0.677	–
283.15 K, x2 = 0.8384	0.799	–
288.15 K, x2 = 0.8104	0.772	–
288.15 K, x2 = 0.8237	0.819	–
288.15 K, x2 = 0.8384	0.956	–
290.15 K, x2 = 0.8384	1.02	–
291.15 K, x2 = 0.8237	0.91	–
291.15 K, x2 = 0.8384	1.05	–
292.15 K, x2 = 0.8104	0.89	–
293.15 K, x2 = 0.7822	0.801	–
293.15 K, x2 = 0.8104	0.921	–
293.15 K, x2 = 0.8237	0.971	–
293.15 K, x2 = 0.8384	1.13	–
294.15 K, x2 = 0.8104	0.951	–
296.15 K, x2 = 0.8237	–	73.9
297.15 K, x2 = 0.7822	–	76.7
297.15 K, x2 = 0.8384	–	62.9
298.15 K, x2 = 0.7822	0.949	72.6
298.15 K, x2 = 0.8104	1.07	67.2
298.15 K, x2 = 0.8384	1.31	59.6
299.15 K, x2 = 0.8237	–	60.2
300.15 K, x2 = 0.8237	–	57.1
303.15 K, x2 = 0.7822	1.11	55.9
303.15 K, x2 = 0.8104	1.25	51.7
308.15 K, x2 = 0.7822	–	43.7
308.15 K, x2 = 0.8104	–	40.4
308.15 K, x2 = 0.8237	–	38.33
308.15 K, x2 = 0.8384	–	36.02
313.15 K, x2 = 0.7822	1.47	34.66
313.15 K, x2 = 0.8237	1.73	–
313.15 K, x2 = 0.8384	1.98	28.64
318.15 K, x2 = 0.8237	–	24.55
323.15 K, x2 = 0.7822	1.89	22.8
323.15 K, x2 = 0.8104	2.09	21.03
323.15 K, x2 = 0.8384	2.55	18.8
328.15 K, x2 = 0.8237	–	16.51
333.15 K, x2 = 0.8104	2.66	14.42
333.15 K, x2 = 0.8384	3.13	12.91
338.15 K, x2 = 0.8237	–	11.57
343.15 K, x2 = 0.8104	3.17	10.28
343.15 K, x2 = 0.8237	3.28	–
343.15 K, x2 = 0.8384	3.76	9.26
353.15 K, x2 = 0.8237	3.77	–
358.15 K, x2 = 0.8237	3.99	–
363.15 K, x2 = 0.8237	4.35	–
